ChEMBL document CHEMBL1201862, “PubChem BioAssay data set” (2004)
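Five concentrations, 48 hours, 96-well plates. The concentration for 50% growth inhibition is given as GI50.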 Activity calls are given as the source filed them. No stated cut-off is given here; in the data, active = GI50 up to about 1.1 µM and inactive = higher.

Key:
Assay in all cases: NCI anticancer screen, dose series, 48 h
CCRF-CEM = test system: CCRF-CEM
SK-MEL-2 = test system: SK-MEL-2
HCC 2998 = test system: HCC 2998
SK-OV-3 = test system: SK-OV-3
RXF 393 = test system: RXF 393
Malme-3M = test system: Malme-3M
M14 = test system: M14
OVCAR-8 = test system: OVCAR-8
LOX IMVI = test system: LOX IMVI
KM12 = test system: KM12
SK-MEL-5 = test system: SK-MEL-5
ACHN = test system: ACHN
OVCAR-3 = test system: OVCAR-3
OVCAR-4 = test system: OVCAR-4
EKVX = test system: EKVX
UACC-257 = test system: UACC-257
HL-60 = test system: HL-60

Row | Structure (SMILES) | GI50 (CCRF-CEM) | GI50 (SK-MEL-2) | GI50 (HCC 2998) | GI50 (SK-OV-3) | GI50 (RXF 393) | GI50 (Malme-3M) | GI50 (M14) | GI50 (OVCAR-8) | GI50 (LOX IMVI) | GI50 (KM12) | GI50 (SK-MEL-5) | GI50 (ACHN) | GI50 (OVCAR-3) | GI50 (OVCAR-4) | GI50 (EKVX) | GI50 (UACC-257) | GI50 (HL-60)
1 | CC(C)(CN1CCCCC1)C(=O)CC(SCCN)c1ccc(Cl)cc1 (stereo not given) | 1.55 µM (inactive) | 1.7 µM (inactive) | 1.85 µM (inactive) | 2.6 µM (inactive) | 1.81 µM (inactive) | 3.1 µM (inactive) | 1.82 µM (inactive) | 2.04 µM (inactive) | 2.09 µM (inactive) | 1.88 µM (inactive) | 1.73 µM (inactive) | 2.78 µM (inactive) | 1.55 µM (inactive) | 3.1 µM (inactive) | 1.74 µM (inactive) | 2.09 µM (inactive) | –
2 | O=c1ncccn1C1OC(CO)C(O)C1O (stereo not given) | > 100 µM (inactive) | > 100 µM (inactive) | > 100 µM (inactive) | > 100 µM (inactive) | > 100 µM (inactive) | > 100 µM (inactive) | > 100 µM (inactive) | > 100 µM (inactive) | > 100 µM (inactive) | > 100 µM (inactive) | – | > 100 µM (inactive) | – | > 100 µM (inactive) | > 100 µM (inactive) | > 10 µM (inactive) | –
3 | CC(C)OP(=O)(OC(C)C)/C(=N/Nc1ccccc1[N+](=O)[O-])NCCN/C(=N\Nc1ccccc1[N+](=O)[O-])P(=O)(OC(C)C)OC(C)C | 22.2 µM (inactive) | 19.6 µM (inactive) | 39.4 µM (inactive) | – | – | 23.1 µM (inactive) | 36.1 µM (inactive) | 39.5 µM (inactive) | 30.2 µM (inactive) | 40.3 µM (inactive) | > 10 µM (inactive) | 30.1 µM (inactive) | 42.7 µM (inactive) | 48.1 µM (inactive) | 28.9 µM (inactive) | 29.2 µM (inactive) | 23.7 µM (inactive)
4 | [O-][n+]1c2c([n+]([O-])c3ccccc31)CCCCCCCCCC2 | 85.7 µM (inactive) | > 100 µM (inactive) | – | > 100 µM (inactive) | – | > 100 µM (inactive) | > 100 µM (inactive) | – | > 100 µM (inactive) | > 100 µM (inactive) | – | > 100 µM (inactive) | > 100 µM (inactive) | – | > 100 µM (inactive) | 67.8 µM (inactive) | 44.1 µM (inactive)
5 | NC1=NS(=O)(=O)Nc2nc(-c3ccc(Cl)cc3)[nH]c21 | > 100 µM (inactive) | > 100 µM (inactive) | > 100 µM (inactive) | > 100 µM (inactive) | > 10 µM (inactive) | > 100 µM (inactive) | > 100 µM (inactive) | > 100 µM (inactive) | > 100 µM (inactive) | > 100 µM (inactive) | > 100 µM (inactive) | > 100 µM (inactive) | > 100 µM (inactive) | > 100 µM (inactive) | – | – | > 100 µM (inactive)
6 | N=C(N)NS(=O)(=O)c1ccc(NC(=O)c2ccc(Cl)c3c(Nc4ccc(S(=O)(=O)N=C(N)N)cc4)c4ccccc4nc23)cc1 | 43.1 µM (inactive) | 39.5 µM (inactive) | – | > 100 µM (inactive) | > 100 µM (inactive) | > 100 µM (inactive) | > 100 µM (inactive) | > 100 µM (inactive) | 50.9 µM (inactive) | 24.5 µM (inactive) | > 10 µM (inactive) | 95.5 µM (inactive) | 32.2 µM (inactive) | > 100 µM (inactive) | 56.8 µM (inactive) | 84.5 µM (inactive) | 41.3 µM (inactive)
7 | Cc1cn(C2OC(C)(CO)C(O)C2O)c(=O)[nH]c1=O (stereo not given) | > 100 µM (inactive) | > 100 µM (inactive) | > 100 µM (inactive) | > 100 µM (inactive) | > 100 µM (inactive) | > 100 µM (inactive) | > 100 µM (inactive) | > 100 µM (inactive) | > 100 µM (inactive) | > 100 µM (inactive) | > 100 µM (inactive) | > 100 µM (inactive) | > 100 µM (inactive) | > 100 µM (inactive) | – | – | > 10 µM (inactive)
8 | C=C(NC(=O)C(=C)NC(=O)c1csc(C2=NC3c4csc(n4)C4NC(=O)c5csc(n5)C(C(C)(O)C(C)O)NC(=O)C5CSC(=N5)/C(=C/C)NC(=O)C(C(C)O)NC(=O)c5csc(n5)C3(CC2)NC(=O)C(C)NC(=O)C(=C)NC(=O)C(C)NC(=O)C(C(C)CC)NC2C=Cc3c(C(C)O)cc(nc3C2O)C(=O)OC4C)n1)C(N)=O (stereo not given) | 0.297 µM (active) | 1.65 µM (inactive) | 6.67 µM (inactive) | 15 µM (inactive) | – | 1.63 µM (inactive) | 1.67 µM (inactive) | – | 1.08 µM (active) | 1.93 µM (inactive) | 1.34 µM (inactive) | 2.32 µM (inactive) | 1.75 µM (inactive) | 19.9 µM (inactive) | 18.2 µM (inactive) | 1.75 µM (inactive) | 2.69 µM (inactive)
9 | COc1ccc([C@@H]2CC(=O)NCCCNCCCCNCCCN2)cc1 | > 100 µM (inactive) | > 100 µM (inactive) | > 100 µM (inactive) | > 100 µM (inactive) | > 100 µM (inactive) | > 100 µM (inactive) | > 100 µM (inactive) | > 100 µM (inactive) | – | > 100 µM (inactive) | > 100 µM (inactive) | > 100 µM (inactive) | – | > 100 µM (inactive) | > 100 µM (inactive) | > 100 µM (inactive) | > 100 µM (inactive)
10 | O=C1C2c3[nH]c4ccccc4c3C3CCCCC3C2C(=O)N1c1ccccc1 (stereo not given) | 85.1 µM (inactive) | – | > 100 µM (inactive) | 20.7 µM (inactive) | 19.6 µM (inactive) | > 100 µM (inactive) | 36.6 µM (inactive) | > 100 µM (inactive) | > 100 µM (inactive) | > 100 µM (inactive) | > 100 µM (inactive) | 99.3 µM (inactive) | 73.6 µM (inactive) | 45.1 µM (inactive) | > 100 µM (inactive) | – | > 100 µM (inactive)
11 | CC(=O)O[C@]12CCCC1C1(O)C(O)CCCC12 (stereo not given in full) | > 100 µM (inactive) | > 100 µM (inactive) | – | > 100 µM (inactive) | > 100 µM (inactive) | > 100 µM (inactive) | > 100 µM (inactive) | > 100 µM (inactive) | > 100 µM (inactive) | > 100 µM (inactive) | > 100 µM (inactive) | > 100 µM (inactive) | – | > 100 µM (inactive) | > 100 µM (inactive) | > 100 µM (inactive) | > 100 µM (inactive)
12 | O=P1(Oc2ccccc2)C(c2ccccc2)C(c2ccccc2)=NN1c1ccccc1 (stereo not given) | 30.4 µM (inactive) | 15.9 µM (inactive) | 28.8 µM (inactive) | 22.6 µM (inactive) | 24.2 µM (inactive) | 43.7 µM (inactive) | 19.7 µM (inactive) | 37 µM (inactive) | 17.3 µM (inactive) | 25.8 µM (inactive) | – | 24.5 µM (inactive) | 19.7 µM (inactive) | 31.6 µM (inactive) | 37.3 µM (inactive) | 27.9 µM (inactive) | 15.8 µM (inactive)
13 | Cc1c(C)c([N+](=O)[O-])c2c(c1N)C(=O)c1ccccc1C2=O | > 100 µM (inactive) | > 100 µM (inactive) | > 100 µM (inactive) | > 100 µM (inactive) | > 100 µM (inactive) | > 100 µM (inactive) | > 100 µM (inactive) | > 100 µM (inactive) | > 100 µM (inactive) | > 100 µM (inactive) | > 100 µM (inactive) | > 100 µM (inactive) | 24.8 µM (inactive) | – | > 100 µM (inactive) | > 100 µM (inactive) | > 100 µM (inactive)
